Experimental data published in paper PMC8398714, “Synthesis and Evaluation of Biological Activities of Bis(spiropyrazolone)cyclopropanes: A Potential Application against Leishmaniasis” (Molecules, 2021).

Key:
[1] = tested on: S. cerevisiae (W303 background); assay: Fungicidal activity (growth, OD600) on S. cerevisiae; type: cell-based, Saccharomyces cerevisiae; settings: 24 h, OD600, concentrations 2.6 to 3000 µM, NA = no activity; for IC50: Saccharomyces cerevisiae, unit inferred, read-out: Inhibitory activity against S. cerevisiae W303 (IC50); for Inhibitory activity against S. cerevisiae W303 (IC50): unit not given
Method: Next, we determined the IC50 of bis(spiropyrazolone)cyclopropanes on a different eukaryotic model: the classical budding yeast S. cerevisiae. Cells were exposed to the compounds at concentrations ranging from 2.6 to 3000 µM for 24 h. The OD600 was measured to assess cell growth. […] These resistances could be explained by the presence of the fungal cell wall, which could limit the entry of bis(spiropyrazolone)cyclopropanes 4 into the cell. Other mechanisms cannot be ruled out, such as structural differences in molecular targets.
The antimicrobial activities of the synthesized compounds were tested against yeast S. cerevisiae (background W303), as described by Teran et al.. Concentrations ranging from 2468.7 to 2.4 µM were assayed.

[2] = Stability of solutions by spectroscopic measurements; type: physicochemical; settings: DMSO solution; 100 μM in DMSO, room temperature

Row | SMILES | IC50 [1] | half-life at 100 µM [2] | Inhibitory activity against S. cerevisiae W303 (IC50) [1]
1 | CC1=NN(c2ccccc2)C(=O)[C@@]12C(c1ccccc1)[C@@]21C(=O)N(c2ccccc2)N=C1C (relative stereo) [4b, (5R*,6R*)-4,10-Dimethyl-2,8,11-triphenyl-2,3,8,9-tetraazadispiro[4.0.4.1]undeca-3,9-diene-1,7-dione] | 1.38 ± 0.304 mM | ~7.85 h | 
2 | COC(=O)c1ccc(C2[C@@]3(C(=O)N(c4ccccc4)N=C3C)[C@]23C(=O)N(c2ccccc2)N=C3C)cc1 (relative stereo) [4q, (5R*,6R*)-Methyl-4[4,10-dimethyl-2,8-diphenyl-2,3,8,9-tetraazadispiro[4.0.4.1]undeca-3,9-diene-1,7-dione-11-yl]benzoate] | 1.09 ± 0.0385 mM |  | slight measurable effect
3 | CC1=NN(c2ccccc2)C(=O)[C@@]12C(c1ccc(C(F)(F)F)cc1)[C@@]21C(=O)N(c2ccccc2)N=C1C (relative stereo) [4r, (5R*,6R*)-11-(4-Trifluoromethylphenyl)-4,10-dimethyl-2,8-diphenyl-2,3,8,9-tetraazadispiro[4.0.4.1]undeca-3,9-diene-1,7-dione] | 1.27 ± 0.119 mM |  | 
4 | CC1=NN(c2ccccc2)C(=O)[C@@]12C(c1ccc(OC(F)(F)F)cc1)[C@@]21C(=O)N(c2ccccc2)N=C1C (relative stereo) [4s, (5R*,6R*)-11-(4-Trifluoromethoxyphenyl)-4,10-dimethyl-2,8-diphenyl-2,3,8,9-tetraazadispiro[4.0.4.1]undeca-3,9-diene-1,7-dione] | 0.789 ± 0.0373 mM |  | slight measurable effect
